Test results reported in patent publication US11000033B2, “Ketone or oxime compound, and herbicide” (NISSAN CHEMICAL CORPORATION, priority 2014, dated 2021).

Experiments:
Assay type in all cases: in vivo
[1] = tested on: Echinochloa oryzacola Vasing.; test: Test Example 1: herbicidal activity, application before weed generation in submerged conditions (symbol A); details: application herbicide amount 320 g/ha
Summary of the method: (§1)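 Pre-emergence, paddy conditions: emulsifiable formulation diluted in water, dosed onto floodwater (4 cm depth) on sowing day. Alluvial soil; weeds sown mixed; rice transplanted at 2.5-leaf stage. Greenhouse 25–30 °C, 3 wk. Score 0–5 (5 = ≥90% kill, 0 = ≤5%).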

Scirpus juncoides [2] = test: Test Example 1: herbicidal activity, application before weed generation in submerged conditions (symbol B); details: application herbicide amount 320 g/ha
Summary of the method: as §1

Monochoria vaginalis [3] = test: Test Example 1: herbicidal activity, application before weed generation in submerged conditions (symbol C); details: application herbicide amount 320 g/ha
Summary of the method: as §1

transplanted rice plant = test: Test Example 1: effect on crop, application before weed generation in submerged conditions (symbol a); details: application herbicide amount 320 g/ha
Summary of the method: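 Rice at 2.5 leaf stage transplanted into submerged soil (4 cm depth) sown with three weed species; herbicide applied before weed emergence.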

[4] = tested on: Echinochloa oryzacola Vasing.; test: Test Example 2: herbicidal activity, application during weed generation in submerged conditions (symbol A); details: Table 23; application herbicide amount 320 g/ha; grade 0-5 by criteria of Test Example 1
Summary of the method: (§2)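 Alluvial soil in pots was flooded to a 4 cm water depth and sown with a mix of the three weed species, then grown in a greenhouse at 25° C. to 30° C. At the one- to two-leaf stage, an emulsifiable formulation diluted in water to a set dose was applied to the water surface. Effects were scored visually 3 weeks later.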

Scirpus juncoides [5] = test: Test Example 2: herbicidal activity, application during weed generation in submerged conditions (symbol B); details: Table 23; application herbicide amount 320 g/ha; grade 0-5 by criteria of Test Example 1
Summary of the method: as §2

Monochoria vaginalis [6] = test: Test Example 2: herbicidal activity, application during weed generation in submerged conditions (symbol C); details: Table 23; application herbicide amount 320 g/ha; grade 0-5 by criteria of Test Example 1
Summary of the method: as §2

[7] = tested on: Echinochloa crus-galli var. crus-galli; test: Test Example 3: herbicidal effect by foliage application, Wagner pot (symbol H); details: application herbicide amount 320 g/ha
Summary of the method: (§3)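 Weeds and rice were sown in alluvial soil under 0.1–0.5 cm of standing water and grown for 14 days in a 25–30 °C greenhouse. An emulsion of the compound, diluted in water to a set dose, was sprayed evenly onto the foliage. Effect was scored against fixed criteria 3 weeks after treatment.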

Leptochloa chinensis = test: Test Example 3: herbicidal effect by foliage application, Wagner pot (symbol D); details: application herbicide amount 320 g/ha
Summary of the method: as §3

Cyperus difformis = test: Test Example 3: herbicidal effect by foliage application, Wagner pot (symbol E); details: application herbicide amount 320 g/ha
Summary of the method: as §3

[8] = tested on: directly sowed rice plant; test: Test Example 3: effect on crop by foliage application, Wagner pot (symbol b); details: application herbicide amount 320 g/ha
Summary of the method: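 Plants are raised from seed in flooded paddy conditions: water stands 0.1–0.5 cm over alluvial soil, and the pot is kept in a greenhouse at 25–30 °C. Species sown are barnyardgrass (E. crus-galli var. crus-galli), Leptochloa chinensis, Cyperus difformis and rice.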

Digitaria ciliaris = test: Test Example 5: herbicidal effect by foliage application, plastic box (symbol F); details: 320 g/ha, 3 weeks after application
Summary of the method: (§4)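 Leaf-applied emulsion, water-diluted to a preset herbicide dose, on two-week-old seedlings raised in a 25° C. to 30° C. greenhouse; injury rated at 3 weeks using earlier criteria.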

Setaria viridis = test: Test Example 5: herbicidal effect by foliage application, plastic box (symbol G); details: 320 g/ha, 3 weeks after application
Summary of the method: as §4

[9] = tested on: Echinochloa crus-galli var. crus-galli; test: Test Example 5: herbicidal effect by foliage application, plastic box (symbol H); details: 320 g/ha, 3 weeks after application
Summary of the method: as §4

Avena fatua = test: Test Example 5: herbicidal effect by foliage application, plastic box (symbol I); details: 320 g/ha, 3 weeks after application
Summary of the method: as §4

Alopecurus myosuroides = test: Test Example 5: herbicidal effect by foliage application, plastic box (symbol J); details: 320 g/ha, 3 weeks after application
Summary of the method: as §4

Lolium multiflorum Lam. = test: Test Example 5: herbicidal effect by foliage application, plastic box (symbol K); details: 320 g/ha, 3 weeks after application
Summary of the method: as §4

Apera spica-venti = test: Test Example 5: herbicidal effect by foliage application, plastic box (symbol L); details: 320 g/ha, 3 weeks after application
Summary of the method: as §4

Abutilon theophrasti = test: Test Example 5: herbicidal effect by foliage application, plastic box (symbol M); details: 320 g/ha, 3 weeks after application
Summary of the method: as §4

Amaranthus retroflexus = test: Test Example 5: herbicidal effect by foliage application, plastic box (symbol N); details: 320 g/ha, 3 weeks after application
Summary of the method: as §4

Chenopodium album = test: Test Example 5: herbicidal effect by foliage application, plastic box (symbol O); details: 320 g/ha, 3 weeks after application
Summary of the method: as §4

Stellaria media = test: Test Example 5: herbicidal effect by foliage application, plastic box (symbol P); details: 320 g/ha, 3 weeks after application
Summary of the method: as §4

Galium spurium = test: Test Example 5: herbicidal effect by foliage application, plastic box (symbol Q); details: 320 g/ha, 3 weeks after application
Summary of the method: as §4

Veronica persica = test: Test Example 5: herbicidal effect by foliage application, plastic box (symbol R); details: 320 g/ha, 3 weeks after application
Summary of the method: as §4

corn = test: Test Example 5: effect on crop by foliage application, plastic box (symbol c); details: 320 g/ha, 3 weeks after application
Summary of the method: (§5)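 Seeds were sown in spots in sterilized diluvial soil held in a plastic box 21 cm × 13 cm × 7 cm deep, covered with about 1.5 cm of soil, and grown in a greenhouse at 25° C. to 30° C.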

soybean = test: Test Example 5: effect on crop by foliage application, plastic box (symbol d); details: 320 g/ha, 3 weeks after application
Summary of the method: as §5

rice plant = test: Test Example 5: effect on crop by foliage application, plastic box (symbol b); details: 320 g/ha, 3 weeks after application
Summary of the method: as §5

wheat = test: Test Example 5: effect on crop by foliage application, plastic box (symbol e); details: 320 g/ha, 3 weeks after application
Summary of the method: as §5

beet = test: Test Example 5: effect on crop by foliage application, plastic box (symbol f); details: 320 g/ha, 3 weeks after application
Summary of the method: as §5

rapeseed = test: Test Example 5: effect on crop by foliage application, plastic box (symbol g); details: 320 g/ha, 3 weeks after application
Summary of the method: as §5

Compound	Herbicidal effect grade, A: Echinochloa oryzacola Vasing. [1]	Herbicidal effect grade, B: Scirpus juncoides (Scirpus juncoides [2])	Herbicidal effect grade, C: Monochoria vaginalis (Monochoria vaginalis [3])	Effect grade on crop, a: transplanted rice plant (transplanted rice plant)	Herbicidal effect grade, A: Echinochloa oryzacola Vasing. [4]	Herbicidal effect grade, B: Scirpus juncoides (Scirpus juncoides [5])	Herbicidal effect grade, C: Monochoria vaginalis (Monochoria vaginalis [6])	herbicidal effect on H (Echinochloa crus-galli var. crus-galli), grade 0-5 [7]	herbicidal effect on D (Leptochloa chinensis), grade 0-5 (Leptochloa chinensis)	herbicidal effect on E, grade 0-5 (Cyperus difformis)	effect on crop b (directly sowed rice plant), grade 0-5 [8]	F: Digitaria ciliaris, herbicidal effect (criteria of Test Example 1) (Digitaria ciliaris)	G: Setaria viridis, herbicidal effect (criteria of Test Example 1) (Setaria viridis)	H: Echinochloa crus-galli var. crus-galli, herbicidal effect (criteria of Test Example 1) [9]	I: Avena fatua, herbicidal effect (criteria of Test Example 1) (Avena fatua)	J: Alopecurus myosuroides, herbicidal effect (criteria of Test Example 1) (Alopecurus myosuroides)	K: Lolium multiflorum Lam., herbicidal effect (criteria of Test Example 1) (Lolium multiflorum Lam.)	L: Apera spica-venti, herbicidal effect (criteria of Test Example 1) (Apera spica-venti)	M: Abutilon theophrasti, herbicidal effect (criteria of Test Example 1) (Abutilon theophrasti)	N: Amaranthus retroflexus, herbicidal effect (criteria of Test Example 1) (Amaranthus retroflexus)	further results
CON=C(C)CC1CC(OC(=O)N(C)C)=C(c2c(C)cc(-c3ccc(Cl)cc3)cc2OC)C1=O (stereo not drawn) [6-081]	5 (Herbicidal ratio of 90% or more (almost completely withered))	0 (Herbicidal ratio of 5% or lower (almost no effect))	1 (Herbicidal ratio of 5% or higher and lower than 20%)	3 (Herbicidal ratio of 40% or higher and lower than 70%)	1 (Herbicidal ratio of 5% or higher and lower than 20%)	0 (Herbicidal ratio of 5% or lower (almost no effect))	0 (Herbicidal ratio of 5% or lower (almost no effect))	1 (Herbicidal ratio of 5% or higher and lower than 20%)	3 (Herbicidal ratio of 40% or higher and lower than 70%)	0 (Herbicidal ratio of 5% or lower (almost no effect))	0 (Herbicidal ratio of 5% or lower (almost no effect))	4 (Herbicidal ratio of 70% or higher and lower than 90%)	0 (Herbicidal ratio of 5% or lower (almost no effect))	4 (Herbicidal ratio of 70% or higher and lower than 90%)	5 (Herbicidal ratio of 90% or more (almost completely withered))	3 (Herbicidal ratio of 40% or higher and lower than 70%)	4 (Herbicidal ratio of 70% or higher and lower than 90%)	5 (Herbicidal ratio of 90% or more (almost completely withered))	0 (Herbicidal ratio of 5% or lower (almost no effect))	0 (Herbicidal ratio of 5% or lower (almost no effect))	O: Chenopodium album, herbicidal effect (criteria of Test Example 1) (Chenopodium album): 0 (Herbicidal ratio of 5% or lower (almost no effect)); P: Stellaria media, herbicidal effect (criteria of Test Example 1) (Stellaria media): 0 (Herbicidal ratio of 5% or lower (almost no effect)); Q: Galium spurium, herbicidal effect (criteria of Test Example 1) (Galium spurium): 0 (Herbicidal ratio of 5% or lower (almost no effect)); R: Veronica persica, herbicidal effect (criteria of Test Example 1) (Veronica persica): 0 (Herbicidal ratio of 5% or lower (almost no effect)); c: corn, effect on crop (criteria of Test Example 1) (corn): 5 (Herbicidal ratio of 90% or more (almost completely withered)); d: soybean, effect on crop (criteria of Test Example 1) (soybean): 0 (Herbicidal ratio of 5% or lower (almost no effect)); b: directly sowed rice plant, effect on crop (criteria of Test Example 1) (rice plant): 0 (Herbicidal ratio of 5% or lower (almost no effect)); e: wheat, effect on crop (criteria of Test Example 1) (wheat): 3 (Herbicidal ratio of 40% or higher and lower than 70%); f: beet, effect on crop (criteria of Test Example 1) (beet): 0 (Herbicidal ratio of 5% or lower (almost no effect)); g: rapeseed, effect on crop (criteria of Test Example 1) (rapeseed): 3 (Herbicidal ratio of 40% or higher and lower than 70%)
CON=C(C)CC1CC(OC(=O)N2CCOCC2)=C(c2c(C)cc(-c3ccc(Cl)cc3Cl)cc2C)C1=O (stereo not drawn) [6-090]	5 (Herbicidal ratio of 90% or more (almost completely withered))	0 (Herbicidal ratio of 5% or lower (almost no effect))	0 (Herbicidal ratio of 5% or lower (almost no effect))	0 (Herbicidal ratio of 5% or lower (almost no effect))	3 (Herbicidal ratio of 40% or higher and lower than 70%)	0 (Herbicidal ratio of 5% or lower (almost no effect))	0 (Herbicidal ratio of 5% or lower (almost no effect))	0 (Herbicidal ratio of 5% or lower (almost no effect))	5 (Herbicidal ratio of 90% or more (almost completely withered))	0 (Herbicidal ratio of 5% or lower (almost no effect))	0 (Herbicidal ratio of 5% or lower (almost no effect))	5 (Herbicidal ratio of 90% or more (almost completely withered))	5 (Herbicidal ratio of 90% or more (almost completely withered))	4 (Herbicidal ratio of 70% or higher and lower than 90%)	4 (Herbicidal ratio of 70% or higher and lower than 90%)	3 (Herbicidal ratio of 40% or higher and lower than 70%)	4 (Herbicidal ratio of 70% or higher and lower than 90%)	2 (Herbicidal ratio of 20% or higher and lower than 40%)	0 (Herbicidal ratio of 5% or lower (almost no effect))	0 (Herbicidal ratio of 5% or lower (almost no effect))	O: Chenopodium album, herbicidal effect (criteria of Test Example 1) (Chenopodium album): 0 (Herbicidal ratio of 5% or lower (almost no effect)); P: Stellaria media, herbicidal effect (criteria of Test Example 1) (Stellaria media): 0 (Herbicidal ratio of 5% or lower (almost no effect)); Q: Galium spurium, herbicidal effect (criteria of Test Example 1) (Galium spurium): 0 (Herbicidal ratio of 5% or lower (almost no effect)); R: Veronica persica, herbicidal effect (criteria of Test Example 1) (Veronica persica): 0 (Herbicidal ratio of 5% or lower (almost no effect)); c: corn, effect on crop (criteria of Test Example 1) (corn): 2 (Herbicidal ratio of 20% or higher and lower than 40%); d: soybean, effect on crop (criteria of Test Example 1) (soybean): 0 (Herbicidal ratio of 5% or lower (almost no effect)); b: directly sowed rice plant, effect on crop (criteria of Test Example 1) (rice plant): 1 (Herbicidal ratio of 5% or higher and lower than 20%); e: wheat, effect on crop (criteria of Test Example 1) (wheat): 0 (Herbicidal ratio of 5% or lower (almost no effect)); f: beet, effect on crop (criteria of Test Example 1) (beet): 0 (Herbicidal ratio of 5% or lower (almost no effect)); g: rapeseed, effect on crop (criteria of Test Example 1) (rapeseed): 4 (Herbicidal ratio of 70% or higher and lower than 90%)
